In US20220050096A1, “ANALYTE-SENSITIVE PROBES AND CONTACT LENS FOR DIAGNOSIS OF OCULAR PATHOLOGIES” (University Of Maryland, Baltimore, priority 2020, published 2022):
Where two headings read alike, the source gives them in different places.

Assays:
[1] = Chloride-dependent intensity decay analysis of SPQ-C18 in MyDay contact lenses, 20 mM MOPS pH 7.3; format: physicochemical
Protocol: Fluorescence Spectroscopic Measurements. Fluorescence intensities and intensity decays were measured using a Varian™ Eclipse 4 spectrofluorometer and a FluoTime300 instrument from PicoQuant™ (Berlin, Germany) and analyzed with the EasyTau™ software. The excitation source was a 473 nm laser diode with a repetition rate of 40 MHZ and a pulse width less than 100 ps. In other embodiments, the excitation source for SG-PL was at 495 nm from a Solea™ supercontinuum laser (PicoQuant™, Germany) and a 375 nm laser diode (PDL 375, PicoQuant™), a repetition rate of 40 MHz, and a pulse width less than 100 ps. Some intensity and lifetime measurements for SG-PL (as indicated) were performed using Alba V confocal fluorescence lifetime microscopy, FLIM (ISS, Urbana, Ill.), with excitation source of a 473 nm laser diode with a repetition rate of 40 MHz and a pulse width near 250 ps.
Intensity decays were measured at the emission maximum with the band of 10 to 20 nm, analyzed in terms of the multi-exponential model:
I(t)=Σαi exp(−t/ti) (equation 1)
where ti are the individual decay times and αi the initial time-zero amplitudes. The mean decay time can be represented in two ways. The average lifetime is given by:
where Σαi=1.0 and Σfi=1.0. The term fi=αi τi is proportional to the fractional contribution of each component to the total intensity decay. The term τi/Σαi τi is the fractional contribution to the steady state emission. Here, we use the amplitude-weighted lifetime given by
which is appropriate when the emission is from a single fluorophore with a changing quantum yield. For a single exponential decay, the lifetime is given by τ=1.0/(knr+Γ) and the quantum yield is given by Q=Γ/(knr+Γ) where knr is the sum of all non-radiative decay rates and Γ is the radiative decay rate. The value of Γ is determined by the molecular extinction coefficient that remains constant under most conditions. For a single type of fluorophore with a constant value of Γ the normalized αi values represent the molecular fraction of each decay time component. The value of αi and τi were determined by non-linear least squares fitting using PicoQuant™ software.
Quenching by Chloride. Collisional quenching occurs, for example, when SPQ-C18 (also referred to as OD-MQB (N-Octadecyl-6-methoxyquinolinium bromide)) has a diffusion collision with a chloride ion. The intensities (I) and lifetimes (6) are analyzed using the Stern-Volmer equation,
SPQ-C18 was synthesized using 6-methoxy quinolinium (SPQ) and 1-bromooctadecane (C18) as described in the art. Lenses were labeled by incubation with 3 ml of a 1 μM solution of SPQ-C18 in methanol-water. SPQ-C18 bound rapidly to the Biofinity™ lenses. […] Unless stated otherwise, all spectral measurements conducted for the present study were performed in 20 mM MOPS buffer, 8 mM KCl, pH 7.2, at room temperature.

[2] = Fluorescence anisotropy decays of SG in buffer and sodium probes in Biofinity lenses; format: physicochemical
Protocol: Three decay time components were required for the intensity decays. Fluorescence anisotropy decays were determined by individual measurements of the polarized intensity decays with corrections for the G-factor. Resolution of multi-exponential decays is not necessary. The average lifetime can be used as a single measurement.
Similar anisotropy decays have been observed for numerous fluorophores bound to large proteins or membranes.

[3] = cited from earlier work; for Kd: read-out: K (mM), binding constant

CCCCCCCCCCCCCCCCCC[n+]1cccc2cc(OC)ccc21 [SPQ-C18, N-Octadecyl-6-methoxyquinolinium bromide]
f1 ([1]; NaCl 0 mM): 0.074 | f2 ([1]; NaCl 0 mM): 0.191 | f3 ([1]; NaCl 0 mM): 0.735 | α1 ([1]; NaCl 0 mM): 0.560 | α2 ([1]; NaCl 0 mM): 0.187 | α3 ([1]; NaCl 0 mM): 0.253 | τ1 ([1]; NaCl 0 mM): 1.03 ns | τ2 ([1]; NaCl 0 mM): 8.00 ns | τ3 ([1]; NaCl 0 mM): 22.78 ns | τf ([1]; NaCl 0 mM): 18.36 ns | τα ([1]; NaCl 0 mM): 7.83 ns | f1 ([1]; NaCl 10 mM): 0.078 | f2 ([1]; NaCl 10 mM): 0.315 | f3 ([1]; NaCl 10 mM): 0.607 | α1 ([1]; NaCl 10 mM): 0.496 | α2 ([1]; NaCl 10 mM): 0.290 | α3 ([1]; NaCl 10 mM): 0.214 | τ1 ([1]; NaCl 10 mM): 1.05 ns | τ2 ([1]; NaCl 10 mM): 7.22 ns | τ3 ([1]; NaCl 10 mM): 18.80 ns | τf ([1]; NaCl 10 mM): 13.76 ns | τα ([1]; NaCl 10 mM): 6.63 ns | f1 ([1]; NaCl 20 mM): 0.102 | f2 ([1]; NaCl 20 mM): 0.306 | f3 ([1]; NaCl 20 mM): 0.592 | α1 ([1]; NaCl 20 mM): 0.554 | α2 ([1]; NaCl 20 mM): 0.263 | α3 ([1]; NaCl 20 mM): 0.183 | τ1 ([1]; NaCl 20 mM): 1.12 ns | τ2 ([1]; NaCl 20 mM): 7.04 ns | τ3 ([1]; NaCl 20 mM): 19.59 ns | τf ([1]; NaCl 20 mM): 13.86 ns | τα ([1]; NaCl 20 mM): 6.05 ns | f1 ([1]; NaCl 40 mM): 0.126 | f2 ([1]; NaCl 40 mM): 0.375 | f3 ([1]; NaCl 40 mM): 0.499 | α1 ([1]; NaCl 40 mM): 0.590 | α2 ([1]; NaCl 40 mM): 0.275 | α3 ([1]; NaCl 40 mM): 0.136 | τ1 ([1]; NaCl 40 mM): 1.06 ns | τ2 ([1]; NaCl 40 mM): 6.78 ns | τ3 ([1]; NaCl 40 mM): 18.24 ns | τf ([1]; NaCl 40 mM): 11.78 ns | τα ([1]; NaCl 40 mM): 4.96 ns | f1 ([1]; NaCl 80 mM): 0.148 | f2 ([1]; NaCl 80 mM): 0.373 | f3 ([1]; NaCl 80 mM): 0.478 | α1 ([1]; NaCl 80 mM): 0.601 | α2 ([1]; NaCl 80 mM): 0.284 | α3 ([1]; NaCl 80 mM): 0.115 | τ1 ([1]; NaCl 80 mM): 1.05 ns | τ2 ([1]; NaCl 80 mM): 5.58 ns | τ3 ([1]; NaCl 80 mM): 17.70 ns | τf ([1]; NaCl 80 mM): 10.71 ns | τα ([1]; NaCl 80 mM): 4.25 ns | f1 ([1]; NaCl 140 mM): 0.177 | f2 ([1]; NaCl 140 mM): 0.368 | f3 ([1]; NaCl 140 mM): 0.455 | α1 ([1]; NaCl 140 mM): 0.649 | α2 ([1]; NaCl 140 mM): 0.253 | α3 ([1]; NaCl 140 mM): 0.099 | τ1 ([1]; NaCl 140 mM): 1.01 ns | τ2 ([1]; NaCl 140 mM): 5.39 ns | τ3 ([1]; NaCl 140 mM): 17.05 ns | τf ([1]; NaCl 140 mM): 9.92 ns | τα ([1]; NaCl 140 mM): 3.70 ns | f1 ([1]; NaCl 220 mM): 0.191 | f2 ([1]; NaCl 220 mM): 0.425 | f3 ([1]; NaCl 220 mM): 0.284 | α1 ([1]; NaCl 220 mM): 0.636 | α2 ([1]; NaCl 220 mM): 0.282 | α3 ([1]; NaCl 220 mM): 0.081 | τ1 ([1]; NaCl 220 mM): 0.94 ns | τ2 ([1]; NaCl 220 mM): 4.71 ns | τ3 ([1]; NaCl 220 mM): 14.81 ns | τf ([1]; NaCl 220 mM): 7.87 ns | τα ([1]; NaCl 220 mM): 3.13 ns

COc1cc(N2CCOCCOCCN(c3cc(OC)c(NC(=O)c4ccc(-c5c6cc(Cl)c(=O)cc-6oc6cc([O-])c(Cl)cc56)c(C(=O)[O-])c4)cc3OC)CCOCC2)c(OC)cc1NC(=O)c1ccc(-c2c3cc(Cl)c(=O)cc-3oc3cc([O-])c(Cl)cc23)c(C(=O)[O-])c1.C[N+](C)(C)C.C[N+](C)(C)C.C[N+](C)(C)C.C[N+](C)(C)C [SG]
anisotropy decay [2]: decayed quickly to zero | Lifetime (ns), cation-bound form ([3]; cation-bound form (in parentheses)): 2.38 ns | Lifetime (ns), free form ([3]; free form): 3.34 ns | Kd ([3]; listed as Na Green): 6 mM | Kd ([3]; listed as Sodium Green): ~5 mM | Kd [3]: 6 to 10 mM
